Assay results from patent US12042523B2, “Compositions and methods for managing or improving bone disorders, joint disorders, cartilage disorders, or a combination thereof” (Unigen, Inc., priority 2014, dated 2024).

Experiments:
BKB1 receptor (BKB1R) = biological target: T1, BKB1 receptor (BKB1R) (Homo sapiens, UniProt P46663); experiment: Bradykinin B1 (BKB1) radioligand binding assay
T1 construct: Membranes from human IMR-90 lung fibroblasts, stimulated with IL-1β; endogenous in cells; host or cells: human IMR-90 lung fibroblasts stimulated with IL-1β (membranes)
T1 sequence (P46663 1-353): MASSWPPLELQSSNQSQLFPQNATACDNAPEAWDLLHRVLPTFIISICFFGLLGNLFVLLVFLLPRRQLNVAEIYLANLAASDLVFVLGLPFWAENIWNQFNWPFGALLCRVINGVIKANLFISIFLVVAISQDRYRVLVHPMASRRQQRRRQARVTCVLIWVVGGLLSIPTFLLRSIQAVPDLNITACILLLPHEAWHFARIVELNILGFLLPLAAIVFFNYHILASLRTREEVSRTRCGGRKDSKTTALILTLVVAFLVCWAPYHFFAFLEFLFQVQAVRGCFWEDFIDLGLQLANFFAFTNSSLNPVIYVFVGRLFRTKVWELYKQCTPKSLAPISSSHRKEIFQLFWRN
Method: Bradykinin B1 (BKB1) radioligand binding assay was conducted to determine the inhibition activity of Curcuma longa OE and extract fractions on BKB1 binding to BKB1 receptor (BKB1R). Membranes from human IMR-90 lung fibroblasts, stimulated with IL-1β in modified HEPES buffer (PH=7.4), were incubated with a test sample in the presence of 0.9 nM [^3H](Des-Arg^10)-Kallidin for 60 minutes at room temperature. After incubation, membranes were filtered and washed five times with modified DPBS buffer (pH=7.4). Samples were scintillation counted to determine the amount of specifically bound to the BKB1 receptor containing membrane.
BKB1 binding assay, as described in Example 15, was used to test curcumin compound isolated from a Curcuma longa extract (Compound 11), as well as commercially available curcumin purchased from Sigma-Aldrich (C1386). Curcumin was tested at final concentrations ranging from 200 μM to 5 nM. Binding curves were plotted by non-linear regression fit (using GraphPad Prizm software). Ki values were computed using Cheng-Prusoff algorithm. In addition, inhibition of BKB2 receptor binding activity by curcumin was examined with methods similar to those described in Example 15 for the BKB1 receptor with some modifications. Bradykinin Radioligand Binding Assay (BKB2) was conducted using a standard assay under the following conditions: • 1. […] Reading: TopCount.

[1] = test system: rhIL-1α-mediated degradation of proteoglycan in rabbit articular cartilage explants; experiment: Ex vivo glycosaminoglycans (GAG) release assay; assay type: cell-based; details: for effect on rhIL-1α-mediated degradation of PG / % GAG release: rhIL-1α 5 ng/ml; for % GAG release: IL-1α alone = 100
Method: Articular cartilage from hock joints of rabbits (2.5 kg body weight) was removed immediately after each animal was sacrificed and articular cartilage explants were obtained by following the method described by Sandy et al. (Biochem. Biophy Acta 543:36, 1978).
Briefly, after the articular surfaces were surgically exposed under sterile conditions, approximately 200-220 mg articular surfaces per joint were dissected and submerged into complete medium (DMEM, supplemented with heat inactivated 5% FBS; penicillin 100 U/ml; streptomycin 100 ug/ml). They were then rinsed several times with the complete medium and incubated for 1 to 2 days at 37° C. in a humidified 5% CO2/95% air incubator for stabilization. The complete medium was replaced with a basal medium (DMEM, supplemented with heat-inactivated 1% FBS, 10 mM HEPES, and penicillin 100 U/ml streptomycin 100 μg/ml). Approximately 30 mg cartilage pieces (2×3×0.35 mm/piece) were placed in 24-well plates and treated with given concentrations of test agents. After pretreatment for 1 h, 5 ng/ml of rhIL-1α was added to the culture medium and further incubated at 37° C. in a humidified 5% CO2/95% air incubator. The culture medium was collected 24 h later and stored at −20° C. until assay.
The amount of sulphated GAGs (e.g., released from proteoglycans) in the medium at the end of the reaction reflects the amount of articular cartilage degradation, which was determined using the commercially available 1,9-dimethy-methylene blue method according to the instructions of the manufacturer (Blyscan™ assay, Accurate Chemical and Scientific Corp., Westbury, New York).

For `COc1cc(/C=C/C(=O)CC(=O)/C=C/c2ccc(O)c(OC)c2)ccc1O` [Curcumin], the “BKB1 versus BKB2 binding inhibition” value (BKB1 receptor (BKB1R)) was “selective BKB1 antagonist”.
For `CC(C)=CCc1c(-c2ccc(O)cc2O)oc2c3c(cc(O)c2c1=O)OC(C)(C)C=C3` [Morusin], the “effect on rhIL-1α-mediated degradation of PG” value (“effect” below) [1] was “strong inhibitory effect”.
With `OC[C@H]1O[C@@H](Oc2cc(O)cc(/C=C/c3ccc(O[C@@H]4O[C@H](CO)[C@@H](O)[C@H](O)[C@H]4O)cc3O)c2)[C@H](O)[C@@H](O)[C@@H]1O` [Mulberoside A, mulberroside A] the “effect” value [1] was “strong inhibitory effect”.
`CC(=O)N[C@H]1C(O)O[C@H](CO)[C@@H](O)[C@@H]1O` (stereo partly drawn) [NAG, N-Acetyl Glucosamine] was tested, and the inhibition at 150 µg/mL ([1]; Oryctolagus cuniculus, 150 μg/ml, individual) was 31.8%, the “% GAG release” value ([1]; sample 12.5 μg/ml) was 95.7% and the “% GAG release” value ([1]; sample 25 μg/ml) was 99.2%. The “% GAG release” value ([1]; sample 50 μg/ml) was 87.5% and the “% GAG release” value ([1]; sample 75 μg/ml) was 81.2%.
In the case of `Oc1cc(O)cc(/C=C/c2ccc(O)cc2O)c1` [Oxyresveratrol], the “effect” value [1] is reported as “strong inhibitory effect”.
